This is an account of results in US20220096717A1, “AXITINIB-LOADED NANOFIBER MEMBRANE, PREPARATION METHOD FOR THE SAME, AND ITS USE OF ANTI-ADHESION AFTER A SURGERY” (SHANGHAI CHILDREN'S MEDICAL CENTER, SHANGHAI JIAO TONG …, priority 2020, published 2022).

This series can be described thus: Solubility of Axitinib (FIG. 1). Format: physicochemical. Particulars: FIG. 1A. How it is done: FIG. 1: pictures showing solubility of Axitinib. A is a picture in which Axitinib is dissolved in water and trifluoroethanol; B is a picture in which gelatin and polycaprolactone are dissolved in trifluoroethanol with and without the addition of Axitinib to the electrospinning solution.
Stirring the solution to forms a milky solution. When it stays for a long period of time, granular precipitation may occur. […] 0.25 g of gelatin and 0.25 g of polycaprolactone were dissolved in 5 ml of trifluoroethanol containing 20 μl of acetic acid to form a transparent solution, and 50 mg of Axitinib was added to form a light yellow transparent solution (B).

Take `CNC(=O)c1ccccc1Sc1ccc2c(/C=C/c3ccccn3)n[nH]c2c1` [Axitinib]: under “trifluoroethanol”, the “solubility in trifluoroethanol (TFE)” value was “quickly dissolved”. Also, the solubility in water result (water) is “poorly soluble”.
